Read-outs that look alike come from different tables or passages of the source.
Columns and labels:
[1] = system: Hep3B (hepatocellular carcinoma); assay: Cell viability analysis, hepatic cancer Hep3B; assay type: cell-based, human; details: Hep3B, repeated experiment; for viability at 10 µM: Homo sapiens, 72 h, read-out: The results of antibiotic drug inhibiting cancer cell lines (cell viability analysis), Hep3B
AsPC-1 = assay: Cell viability analysis, pancreatic cancer AsPC-1; assay type: cell-based, human; details: Homo sapiens, ASPC1, 72 h; AsPC-1; repeated experiment; read-out: The results of antibiotic drug inhibiting cancer cell lines (cell viability analysis), AsPC-1
NIH: OVCAR-3 = assay: Cell viability analysis, ovarian cancer NIH: OVCAR-3; assay type: cell-based, human; details: NIH-OVCAR-3, repeated experiment; for viability at 10 µM: Homo sapiens, 72 h, read-out: The results of antibiotic drug inhibiting cancer cell lines (cell viability analysis), NIH-OVCAR-3
[2] = system: SAS (Tongue squamous cell carcinoma); assay: Cell viability analysis, tongue cancer SAS; assay type: cell-based, human; details: SAS, repeated experiment; for viability at 10 µM: Homo sapiens, 72 h, read-out: The results of antibiotic drug inhibiting cancer cell lines (cell viability analysis), SAS
cancer cell lines = assay: Cell viability analysis (WST-1) on cancer cell lines; assay type: cell-based, human; details: drug 10 μM, 72 hours, WST-1; Table 3
[3] = system: PC3 (p53−) (Prostate Adenocarcinoma); assay: Cell viability analysis, prostate cancer PC3; assay type: cell-based, human; details: for viability at 10 µM: Homo sapiens, 72 h
[4] = system: HeLa (Cervix Adenocarcinoma); assay: Cell viability analysis, cervical cancer HeLa; assay type: cell-based, human; details: Homo sapiens, HeLa, 72 h, HeLa
[5] = system: MDA-MB-231 (Mammary Gland, Adenocarcinoma); assay: Cell viability analysis, breast cancer MDA-MB-231; assay type: cell-based, human; details: MDA-MB231, repeated experiment; for viability at 10 µM: Homo sapiens, MDA-MB-231, 72 h, read-out: The results of antibiotic drug inhibiting cancer cell lines (cell viability analysis), MDA-MB231
[6] = system: TSGH-8301 (Urinary Bladder Carcinoma); assay: Cell viability analysis, bladder cancer TSGH-8301; assay type: cell-based, human; details: for viability at 10 µM: Homo sapiens, 72 h
[7] = system: MCF7 (Mammary Gland, Adenocarcinoma); assay: Cell viability analysis, breast cancer MCF7; assay type: cell-based, human; details: for viability at 10 µM: Homo sapiens, MCF7, 72 h
TOV-21G = assay: Cell viability analysis, ovarian cancer TOV-21G; assay type: cell-based, human; details: TOV-21G, repeated experiment; for viability at 10 µM: Homo sapiens, TOV21G, 72 h, read-out: The results of antibiotic drug inhibiting cancer cell lines (cell viability analysis), TOV-21G
[8] = system: LoVo (Colorectal Adenocarcinoma); assay: Cell viability analysis, colon cancer LoVo; assay type: cell-based, human; details: LoVo; for viability at 10 µM: Homo sapiens, 72 h
[9] = system: BCC (basal cell carcinoma); assay: Cell viability analysis, skin cancer BCC; assay type: cell-based, human; details: BCC, repeated experiment; for viability at 10 µM: Homo sapiens, 72 h, read-out: The results of antibiotic drug inhibiting cancer cell lines (cell viability analysis), BCC
[10] = system: AGS (Gastric Adenocarcinoma); assay: Cell viability analysis, gastric cancer AGS; assay type: cell-based, human; details: for viability at 10 µM: Homo sapiens, 72 h
[11] = system: C-33A (Cervical carcinoma); assay: Cell viability analysis, cervical cancer C-33A; assay type: cell-based, human; details: C-33A, repeated experiment
[12] = system: HI650 (Lung Adenocarcinoma); assay: Cell viability analysis, lung cancer HI650; assay type: cell-based, human; details: Homo sapiens, NCI-H1650, 72 h
[13] = system: A375 (Amelanotic Melanoma); assay: Cell viability analysis, skin cancer A375; assay type: cell-based, human; details: Homo sapiens, A-375, 72 h
[14] = system: HepG2 (Hepatocellular Carcinoma); assay: Cell viability analysis, hepatic cancer HepG2; assay type: cell-based, human; details: for viability at 10 µM: Homo sapiens, HepG2, 72 h
[15] = system: 786-O (Renal adenocarcinoma); assay: Cell viability analysis, renal cancer 786-O; assay type: cell-based, human; details: 786-O, repeated experiment; for viability at 10 µM: Homo sapiens, 786-0, 72 h, read-out: The results of antibiotic drug inhibiting cancer cell lines (cell viability analysis), 786-O
[16] = system: MKN-45 (Gastric Adenocarcinoma); assay: Cell viability analysis, gastric cancer MKN-45; assay type: cell-based, human; details: for viability at 10 µM: Homo sapiens, MKN-45, 72 h
T24 = assay: Cell viability analysis, bladder cancer T24; assay type: cell-based, human; details: T24, repeated experiment; for viability at 10 µM: Homo sapiens, T-24, 72 h, read-out: The results of antibiotic drug inhibiting cancer cell lines (cell viability analysis), T24
[17] = system: A549 (Lung Adenocarcinoma); assay: Cell viability analysis, lung cancer A549; assay type: cell-based, human; details: Homo sapiens, A549, 72 h
[18] = system: HL-60 (Acute Promyelocytic Leukemia); assay: Cell viability analysis, leukemia HL-60; assay type: cell-based, human; details: Homo sapiens, HL-60, 72 h, drug 10 μM, 72 hours, WST-1, OD450 nm; read-out: cell viability (survival rate), HL-60
[19] = system: HCT116 (p53+) (Colorectal Carcinoma)
U-2OS = assay: Cell viability analysis, osteosarcoma U-2OS; assay type: cell-based, human; details: U2OS, repeated experiment
BxPC-3 = assay: Cell viability analysis, pancreatic cancer BxPC-3; assay type: cell-based, human; details: Homo sapiens, 72 h; BxPC-3; repeated experiment; read-out: The results of antibiotic drug inhibiting cancer cell lines (cell viability analysis), BxPC-3
[20] = PC-3, repeated experiment, read-out: The results of antibiotic drug inhibiting cancer cell lines (cell viability analysis), PC-3
[21] = drug 10 μM, 72 hours, WST-1, OD450 nm, read-out: cell viability (survival rate), PC3
[22] = repeated experiment, read-out: The results of antibiotic drug inhibiting cancer cell lines (cell viability analysis), HeLa
[23] = TSGH-8301, repeated experiment, read-out: The results of antibiotic drug inhibiting cancer cell lines (cell viability analysis), TSGH-8301
[24] = drug 10 μM, 72 hours, WST-1, OD450 nm, read-out: cell viability (survival rate), TSGH
[25] = MCF-7, repeated experiment, read-out: The results of antibiotic drug inhibiting cancer cell lines (cell viability analysis), MCF-7
[26] = drug 10 μM, 72 hours, WST-1, OD450 nm, read-out: cell viability (survival rate), MCF7
[27] = read-out: The results of antibiotic drug inhibiting cancer cell lines (cell viability analysis), LoVo, repeated experiment
[28] = AGS, repeated experiment, read-out: The results of antibiotic drug inhibiting cancer cell lines (cell viability analysis), AGS
[29] = drug 10 μM, 72 hours, WST-1, OD450 nm, read-out: cell viability (survival rate), AGS
[30] = H1650, repeated experiment, read-out: The results of antibiotic drug inhibiting cancer cell lines (cell viability analysis), H1650
[31] = drug 10 μM, 72 hours, WST-1, OD450 nm, read-out: cell viability (survival rate), H1650
[32] = A375, repeated experiment, read-out: The results of antibiotic drug inhibiting cancer cell lines (cell viability analysis), A375
[33] = drug 10 μM, 72 hours, WST-1, OD450 nm, read-out: cell viability (survival rate), A375
[34] = HepG2, repeated experiment, read-out: The results of antibiotic drug inhibiting cancer cell lines (cell viability analysis), HepG2
[35] = drug 10 μM, 72 hours, WST-1, OD450 nm, read-out: cell viability (survival rate), HepG2
[36] = MKN-45, repeated experiment, read-out: The results of antibiotic drug inhibiting cancer cell lines (cell viability analysis), MKN-45
[37] = drug 10 μM, 72 hours, WST-1, OD450 nm, read-out: cell viability (survival rate), MKN-45
[38] = A549, repeated experiment, read-out: The results of antibiotic drug inhibiting cancer cell lines (cell viability analysis), A549
[39] = drug 10 μM, 72 hours, WST-1, OD450 nm, read-out: cell viability (survival rate), A549

CC(C)CN(C[C@@H](O)[C@H](Cc1ccccc1)NC(=O)O[C@H]1CCOC1)S(=O)(=O)c1ccc(N)cc1 [Amprenavir (Agenerase), Amprenavir]
viability at 10 µM [1]: 95.2%
viability at 10 µM (AsPC-1): 90.4%
viability at 10 µM (NIH: OVCAR-3): 106%
viability at 10 µM [2]: 83.3%
inhibition effect on different cancer cell lines (cancer cell lines): significant inhibition effect
viability at 10 µM [3, 20]: 87.4%
viability at 10 µM [3, 21]: 80.4%
viability at 10 µM [4, 22]: 67.9%
viability at 10 µM ([4]; drug 10 μM, 72 hours, WST-1, OD450 nm, read-out: cell viability (survival rate), HeLa): 67.5%
viability at 10 µM [5]: 83.5%
viability at 10 µM [6, 23]: 96.1%
viability at 10 µM [6, 24]: 57%
viability at 10 µM [7, 25]: 68.3%
viability at 10 µM [7, 26]: 37%
viability at 10 µM (TOV-21G): 97%
viability at 10 µM [8, 27]: 95.5%
viability at 10 µM ([8]; read-out: cell viability (survival rate), LoVo, drug 10 μM, 72 hours, WST-1, OD450 nm): 77.4%
viability at 10 µM [9]: 74.5%
viability at 10 µM [10, 28]: 98.6%
viability at 10 µM [10, 29]: 58.8%
viability at 10 µM ([11]; Homo sapiens, 72 h, read-out: The results of antibiotic drug inhibiting cancer cell lines (cell viability analysis), C-33A): 109%
viability at 10 µM [12, 30]: 88.1%
viability at 10 µM [12, 31]: 69.5%
viability at 10 µM [13, 32]: 88.1%
viability at 10 µM [13, 33]: 77.6%
viability at 10 µM [14, 34]: 94.5%
viability at 10 µM [14, 35]: 90.9%
viability at 10 µM [15]: 96.7%
viability at 10 µM [16, 36]: 103%
viability at 10 µM [16, 37]: 52.1%
viability at 10 µM (T24): 90.5%
viability at 10 µM [17, 38]: 79.9%
viability at 10 µM [17, 39]: 53.7%
viability at 10 µM [18]: 111%
viability [19]: 94.5%

CN[C@H](CC(C)C)C(=O)N[C@H]1C(=O)N[C@@H](CC(N)=O)C(=O)N[C@H]2C(=O)N[C@H]3C(=O)N[C@H](C(=O)N[C@H](C(=O)O)c4cc(O)cc(O)c4-c4cc3ccc4O)[C@H](O)c3ccc(c(Cl)c3)Oc3cc2cc(c3O[C@@H]2O[C@H](CO)[C@@H](O)[C@H](O)[C@H]2O[C@H]2C[C@](C)(N)[C@H](O)[C@H](C)O2)Oc2ccc(cc2Cl)[C@H]1O.Cl [Vancomycin HCl (Vancocin)]
The results of antibiotic drug inhibiting cancer cell lines (cell viability analysis), Hep3B [1]: 94.6
The results of antibiotic drug inhibiting cancer cell lines (cell viability analysis), NIH-OVCAR-3 (NIH: OVCAR-3): 105.6
The results of antibiotic drug inhibiting cancer cell lines (cell viability analysis), SAS [2]: 102
The results of antibiotic drug inhibiting cancer cell lines (cell viability analysis), U2OS (U-2OS): 62.87
The results of antibiotic drug inhibiting cancer cell lines (cell viability analysis), PC-3 ([3]; PC-3, repeated experiment): 104.2
The results of antibiotic drug inhibiting cancer cell lines (cell viability analysis), MDA-MB231 [5]: 90.26
The results of antibiotic drug inhibiting cancer cell lines (cell viability analysis), TSGH-8301 ([6]; TSGH-8301, repeated experiment): 118
The results of antibiotic drug inhibiting cancer cell lines (cell viability analysis), MCF-7 ([7]; MCF-7, repeated experiment): 91.83
The results of antibiotic drug inhibiting cancer cell lines (cell viability analysis), TOV-21G (TOV-21G): 97.4
The results of antibiotic drug inhibiting cancer cell lines (cell viability analysis), LoVo ([8]; repeated experiment): 101
The results of antibiotic drug inhibiting cancer cell lines (cell viability analysis), BCC [9]: 96.78
The results of antibiotic drug inhibiting cancer cell lines (cell viability analysis), AGS ([10]; AGS, repeated experiment): 108.9
The results of antibiotic drug inhibiting cancer cell lines (cell viability analysis), C-33A [11]: 100.6
The results of antibiotic drug inhibiting cancer cell lines (cell viability analysis), HepG2 ([14]; HepG2, repeated experiment): 92.06
The results of antibiotic drug inhibiting cancer cell lines (cell viability analysis), 786-O [15]: 102.3
The results of antibiotic drug inhibiting cancer cell lines (cell viability analysis), MKN-45 ([16]; MKN-45, repeated experiment): 116.9
The results of antibiotic drug inhibiting cancer cell lines (cell viability analysis), T24 (T24): 95.32
viability [19]: 94.8%

CC(C)c1nc(N(C)S(C)(=O)=O)nc(-c2ccc(F)cc2)c1/C=C/[C@@H](O)C[C@@H](O)CC(=O)O [Rosuvastatin calcium (Crestor), Rosuvastatin calcium]
viability at 10 µM [1]: 109%
viability at 10 µM (AsPC-1): 80.2%
viability at 10 µM (NIH: OVCAR-3): 102%
viability at 10 µM [2]: 93.3%
viability at 10 µM (U-2OS; Homo sapiens, 72 h, read-out: The results of antibiotic drug inhibiting cancer cell lines (cell viability analysis), U2OS): 102%
inhibition effect on different cancer cell lines (cancer cell lines): significant inhibition effect
viability at 10 µM [3, 20]: 95.7%
viability at 10 µM [3, 21]: 94.3%
viability at 10 µM [4, 22]: 97.1%
viability at 10 µM [5]: 90.2%
viability at 10 µM [6, 23]: 113%
viability at 10 µM [6, 24]: 56%
viability at 10 µM [7, 25]: 85.9%
viability at 10 µM [7, 26]: 88.9%
viability at 10 µM (TOV-21G): 80.4%
viability at 10 µM [8, 27]: 103%
viability at 10 µM [9]: 104%
viability at 10 µM [10, 28]: 104%
viability at 10 µM [10, 29]: 55.9%
viability at 10 µM [12, 30]: 76.7%
viability at 10 µM [12, 31]: 80.8%
viability at 10 µM [13, 32]: 105%
viability at 10 µM [13, 33]: 55.6%
viability at 10 µM [14, 34]: 108%
viability at 10 µM [14, 35]: 73.7%
viability at 10 µM [15]: 92.5%
viability at 10 µM [16, 36]: 110%
viability at 10 µM [16, 37]: 83.8%
viability at 10 µM (T24): 75.9%
viability at 10 µM [17, 38]: 95.1%
viability at 10 µM [17, 39]: 97%
viability at 10 µM [18]: 81.7%
viability [19]: 85.6%
viability at 10 µM (BxPC-3): 65.5%

Source: patent US10105357B2, “Indication of antibiotic drugs for preparation of cancer inhibition pharmaceutical composition” (LAUNX BIOMEDICAL CO., LTD., priority 2014, dated 2018)
